Data published in publication PMC5698418 (Nature Communications, 2017).
Structures can show the parent of a compound that is named as a salt. Where two headings read alike, the source gives them in different places. Non-standard residues stand in square brackets, D forms with d. Residues, ends and D or L forms follow the SMILES beside them. αMeP = C[C@@]1(C(=O)O)CCCN1

Tested on: BDNF-induced nuclear Arc expression in primary cortical neurons
Experiment: Chemogenomic screen: high-content image-based assay of BDNF-induced nuclear Arc expression (96-well)
Assay type: cell-based, mouse
Procedure, shortened: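 DIV13 mouse primary cortical neurons (30,000 cells/well) are treated with compound at 16.7 µM and BDNF, in three biological replicates. Arc and acetyl-H3K9 are immunostained and imaged at ×40, and nuclear Arc signal is quantified automatically using acetyl-H3K9 as the nuclear mask.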

[1] = chemogenomic (SMART) screen, BDNF-induced nuclear Arc expression, primary cortical neurons, BDNF control 19.5
[2] = nuclear Arc-positive cells relative to DMSO + BDNF control, negative values = decrease
[3] = BDNF-induced nuclear Arc expression, primary cortical neurons, chemogenomic screen
[4] = nuclear Arc-positive cells relative to DMSO control (BDNF), negative = decrease

SMILES	Percentage of cell with nuclear Arc immunostaining above 2σ threshold [1] [%]	Fold-change — Normalized to DMSO control (BDNF) [2] [fold]	other results
O=C1[C@@H]2[C@H]3CC[C@H](C3)[C@@H]2C(=O)N1C[C@@H]1CCCC[C@H]1CN1CCN(c2nsc3ccccc23)CC1 [Lurasidone]	39.0	2.0	–
O=c1cc(-c2ccc(O)c(O)c2)oc2cc(O)cc(O)c12 [Luteolin]	22.1	1.1	–
CNC1(C)C2CCC(C2)C1(C)C (stereo not shown) [Mecamylamine]	–	–	Percentage of cell with nuclear Arc immunostaining above 2σ threshold [3]: 11.9%
CN(C)CCOC(=O)COc1ccc(Cl)cc1.Cl [Meclofenoxate hydrochloride]	–	1.4	Percentage of cell with nuclear Arc immunostaining above 2σ threshold: 28.2%
COc1ccc2[nH]cc(CCNC(C)=O)c2c1 [Melatonin]	25.2	1.3	–
CC12CC3CC(C)(C1)CC(N)(C3)C2 [Memantine]	17.1	–	–
CC(=O)/N=c1/sc(S(N)(=O)=O)nn1C [Methazolamide]	–	–	Percentage of cell with nuclear Arc immunostaining above 2σ threshold [3]: 11.8%
CN1CCCC(CC2c3ccccc3Sc3ccccc32)C1 (stereo not shown) [Metixene]	–	–	Percentage of cell with nuclear Arc immunostaining above 2σ threshold [3]: 6.7%
CN1CCN2c3ccccc3Cc3ccccc3C2C1 (stereo not shown) [Mianserin]	18.5	–	–
CC#C[C@]1(O)CC[C@H]2[C@@H]3CCC4=CC(=O)CCC4=C3[C@@H](c3ccc(N(C)C)cc3)C[C@@]21C [Mifepristone]	43.7	2.2	–
CCN(CC)C(=O)C1(c2ccccc2)CC1CN (stereo not shown) [Milnacipran]	13.2	–	–
Cc1cc(-c2ccccc2)nnc1NCCN1CCOCC1 [Minaprine]	21.8	1.1	–
CN1CCN2c3ncccc3Cc3ccccc3C2C1 (stereo not shown) [Mirtazapine]	–	–	Percentage of cell with nuclear Arc immunostaining above 2σ threshold [3]: 4.5%
O=C(NCCN1CCOCC1)c1ccc(Cl)cc1 [Moclobemide]	–	–	Percentage of cell with nuclear Arc immunostaining above 2σ threshold [3]: 8.9%
CCc1c(C)[nH]c2c1C(=O)C(CN1CCOCC1)CC2 (stereo not shown) [Molindone]	36.4	1.9	–
NC(=O)C1=CN([C@@H]2O[C@H](COP(=O)(O)OP(=O)(O)OC[C@H]3O[C@@H](n4cnc5c(N)ncnc54)[C@H](O)[C@@H]3O)[C@@H](O)[C@H]2O)C=CC1 [NADH]	25.0	1.3	–
O=C(O)c1cc2cc(O)c(O)cc2c(C(=O)c2ccc(O)c(O)c2)n1 [NBI-31772]	–	–	Percentage of cell with nuclear Arc immunostaining above 2σ threshold: 2.7%; Fold-change — Normalized to DMSO control (BDNF) [4]: -7.3 fold
COc1ccccc1C1(O)CCN(CCCn2c3ccccc3c3ccccc32)CC1 [NNC 05-2090]	–	–	Percentage of cell with nuclear Arc immunostaining above 2σ threshold: 0.0%; Fold-change — Normalized to DMSO control (BDNF) [4]: 0.0 fold
Cl.O=C(O)C1=CCCN(CCON=C(c2ccccc2)c2ccccc2)C1 [NNC 711 hydrochloride]	–	1.1	Percentage of cell with nuclear Arc immunostaining above 2σ threshold: 21.4%
C[C@@]1(C(=O)N[C@@H](CCC(=O)O)C(=O)O)CCCN1C(=O)CN [NNZ-2566] (H-Gly-[αMeP]-Glu-OH)	–	–	Percentage of cell with nuclear Arc immunostaining above 2σ threshold [3]: 6.7%; Fold-change — Normalized to DMSO control (BDNF) [4]: -2.9 fold
Cc1cccc(C)c1NC(=O)CN1CCCC1=O [Nefiracetam]	19.7	1.0	–
O=C(CCNNC(=O)c1ccncc1)NCc1ccccc1 [Nialamide]	29.9	1.5	–
CO[C@]12C[C@@H](COC(=O)c3cncc(Br)c3)CN(C)[C@@H]1Cc1cn(C)c3cccc2c13 [Nicergoline]	–	–	Percentage of cell with nuclear Arc immunostaining above 2σ threshold [3]: 6.1%
O=C(O)C1CCCNC1 (stereo not shown) [Nipecotic acid]	–	1.4	Percentage of cell with nuclear Arc immunostaining above 2σ threshold: 26.3%
CNCCC(Oc1ccccc1OC)c1ccccc1 (stereo not shown) [Nisoxetine hydrochloride]	–	–	Percentage of cell with nuclear Arc immunostaining above 2σ threshold: 19.1%
CC(C)C[C@H](NC(=O)[C@H](CCCCN)NC(=O)[C@H](CCCN=C(N)N)NC(=O)[C@H](C)NC(=O)[C@H](CO)NC(=O)[C@H](CCCCN)NC(=O)[C@H](CCCN=C(N)N)NC(=O)[C@H](C)NC(=O)CNC(=O)[C@@H](NC(=O)[C@H](Cc1ccccc1)NC(=O)CNC(=O)CNC(=O)[C@@H](N)Cc1ccccc1)[C@@H](C)O)C(=O)N[C@@H](C)C(=O)N[C@@H](CC(N)=O)C(=O)N[C@@H](CCC(N)=O)C(=O)O [Nociceptin]	–	1.1	Percentage of cell with nuclear Arc immunostaining above 2σ threshold: 21.6%

SMILES	Percentage of cell with nuclear Arc immunostaining above 2σ threshold [1] [%]	Fold-change — Normalized to DMSO control (BDNF) [2] [fold]	other results
Cc1cc2c(s1)Nc1ccccc1N=C2N1CCN(C)CC1 [Olanzapine]	–	–	Percentage of cell with nuclear Arc immunostaining above 2σ threshold: 19.4%
Cc1nccn1CC1CCc2c(c3ccccc3n2C)C1=O (stereo not shown) [Ondansetron]	37.6	1.9	–
C[C@]12COC(=O)C[C@@H]1CC[C@@H]1[C@@H]2CC[C@@]2(C)[C@H]1CC[C@]2(C)O [Oxandrolone]	–	1.7	Percentage of cell with nuclear Arc immunostaining above 2σ threshold: 33.5%
NC(=O)N1c2ccccc2CC(=O)c2ccccc21 [Oxcarbazepine]	23.6	1.2	–
NC(=O)CN1CC(O)CC1=O (stereo not shown) [Oxiracetam]	41.5	2.1	–
OC(CNc1ccccc1)Cn1c2ccc(Br)cc2c2cc(Br)ccc21 (stereo not shown) [P7C3]	–	–	Percentage of cell with nuclear Arc immunostaining above 2σ threshold: 1.7%; Fold-change — Normalized to DMSO control (BDNF) [4]: -11.2 fold
CC(C)S(=O)(=O)N[C@H]1CCOC[C@@H]1c1ccc(-c2ccc(C#N)s2)cc1 [PF 4778574]	–	1.8	Percentage of cell with nuclear Arc immunostaining above 2σ threshold: 35.9%
Cc1nc2n(c(=O)c1CCN1CCC(c3noc4cc(F)ccc34)CC1)CCCC2O (stereo not shown) [Paliperidone]	15.2	–	–
COc1cc2c(cc1OC)-c1cc3ccc(OC)c(OC)c3c[n+]1CC2 [Palmatine]	–	–	Percentage of cell with nuclear Arc immunostaining above 2σ threshold: 1.1%; Fold-change — Normalized to DMSO control (BDNF) [4]: -17.5 fold
N#Cc1ccccc1-c1cc(-c2ccccn2)cn(-c2ccccc2)c1=O [Perampanel]	–	–	Percentage of cell with nuclear Arc immunostaining above 2σ threshold: 12.4%
O=C1[C@H]2CCCC[C@H]2C(=O)N1CCCCN1CCN(c2nsc3ccccc23)CC1 [Perospirone]	17.9	–	–
OCCN1CCN(CCCN2c3ccccc3Sc3ccc(Cl)cc32)CC1 [Perphenazine]	–	–	Percentage of cell with nuclear Arc immunostaining above 2σ threshold [3]: 1.0%
CN1C(=O)CC(c2ccccc2)C1=O (stereo not shown) [Phensuximide]	24.8	1.3	–
CNC(=O)Oc1ccc2c(c1)[C@]1(C)CCN(C)[C@@H]1N2C [Physostigmine]	–	–	Percentage of cell with nuclear Arc immunostaining above 2σ threshold: 18.3%
O=C([O-])CCCNC(=O)c1cccnc1.[Na+] [Picamilon sodium salt]	29.2	1.5	–
O=C(O)CCCNC(=O)c1cccnc1 [Pikamilone]	38.6	2.0	–
O=c1[nH]c2ccccc2n1C1CCN(CCCC(c2ccc(F)cc2)c2ccc(F)cc2)CC1 [Pimozide]	–	–	Percentage of cell with nuclear Arc immunostaining above 2σ threshold [3]: 1.1%
CCc1ccc(CCOc2ccc(CC3SC(=O)NC3=O)cc2)nc1 (stereo not shown) [Pioglitazone]	15.4	–	–
O=C(/C=C/C=C/c1ccc2c(c1)OCO2)N1CCCCC1 [Piperine]	18.5	–	–
CC(C)CNC(=O)/C=C/C=C/c1ccc2c(c1)OCO2 [Piperlonguminine]	23.0	1.2	–
NC(=O)CN1CCCC1=O [Piracetam]	–	–	Percentage of cell with nuclear Arc immunostaining above 2σ threshold [3]: 10.5%
Cc1ccc2c(c1)c1c3n2CCNC3CCC1 (stereo not shown) [Pirlindole]	15.3	–	–
CCCN[C@H]1CCc2nc(N)sc2C1 [Pramipexole]	14.5	–	–
CC(C)C[C@H](CN)CC(=O)O [Pregabalin]	–	–	Percentage of cell with nuclear Arc immunostaining above 2σ threshold: 8.5%
CC(=O)[C@H]1CC[C@H]2[C@@H]3CC=C4C[C@@H](O)CC[C@]4(C)[C@H]3CC[C@]12C [Pregnenolone]	24.4	1.2	–
